Assay results from article PMC12429841, “Monothiooxalamide–Benzothiazole Hybrids: Predictive Docking on HDAC6, Synthesis, Molecular Structure, and Antiproliferative Activity on Breast Cancer Cells” (International Journal of Molecular Sciences, 2025).

Assays:
[1] = test system: NIH/3T3 cells; assay: Antiproliferative activity, MTT assay, NIH/3T3; assay type: cell-based; settings: NIH3T3, mouse fibroblast, mean ± SD
Description: (§1) The antiproliferative effect of monothiooxalamides 1a–d and 2a–d was assessed in MCF-7 (human breast cancer cell line with estrogen, progesterone, and glucocorticoid receptors), MDA-MB-231 (triple-negative human breast cancer), MCF-10A (non-tumorigenic human mammary epithelial cell line), and NIH/3T3 (mouse fibroblast). The cytotoxicity is expressed as IC50 values in micromolar concentrations, Table 4. […] In contrast, the cytotoxic effect on triple-negative cells MDA-MB-231 was similar to that observed in MCF-10A. […] Nevertheless, it is worth considering that NIH/3T3 are mouse fibroblasts, while the other three cell lines are human cells; therefore, the physiological differences between both species could play an essential role in the exerted effect. Several studies have evaluated 2-aminobenzothiazole derivatives against various cell lines. The targets of this kind of compounds are wide, including HDAC6, tyrosine kinase receptors family (CSF1R kinase, EGFR kinase, VEGFR-2 kinase, FAK kinase), serine/threonine kinases, lysine-specific demethylase (LSD1), phosphoinositide 3-kinase (PI3K), topoisomerases (I and II), Heat shock protein (HSP90), p53, nuclear receptor binding set (NSD1), microsomal prostaglandin E synthase-1 (mPGES-1), and also as chelators of metal ions, which are necessaries for critical biological processes such as gene expression, oxygen transport, and cell respiration. In all cases, the IC50 values were reported in a wide range, from 1 nM to 50 µM. On the other hand, our research group reported a family of MTAs containing 2-aminopyridine, with an activity range of 0.19–18 µM against several human cancer cell lines (A2780-wt, A2780-cis-MSTO-211H, and HT-29). […] Whereas 1c could be a feasible candidate to obtain better results compared with 1a, 2a–c, which were highly cytotoxic to non-tumorigenic cells. As a perspective, the synergic activity of 1c, in combination with antioxidants like curcumin, resveratrol, and quercetin, could also be explored, with the aim to sensitize cancer cells against cytotoxic agents and diminish their toxicity in non-tumorigenic cells. In contrast, MTX, which is an antineoplastic drug, is widely used for many kinds of cancer treatments, including breast cancer. Their mechanism of action is related to the inhibition of dihydrofolate reductase (DHFR). […] Nevertheless, MTX exerted an undesirable effect on NIH/3T3 cells. Although the compounds were not better than MTX, their antiproliferative effect was similar to 2ABT, thioureas, 3-carboxy-coumarin sulfonamides, pyrimethamine conjugates, and N-hydroxycinnamide analogs. Highlighting its low toxicity to non-tumor cells, 1c might be a better option than methotrexate to reduce adverse side effects associated with chemotherapy.
MDA-MB-231 adenocarcinoma cell line was procured from ATCC (CRM-HTB-26TM). […] Cell culture was performed in the appropriate medium for each cell line (MCF-7, MDA-MB-231, MCF-10A, and NIH/3T3). MCF-7, MDA-MB-231, and NIH/3T3 cells were grown in Dulbecco’s modified Eagle Medium (DMEM) high-glucose with phenol red, supplemented with fetal bovine serum inactivated by heat (10%) (BioWest, Miami, FL, USA) and antibiotic (100 U/mL penicillin and […] streptomycin). MCF-10A were grown in DMEM-F12 medium, supplemented with 5% of horse serum inactivated by heat (Biowest, Miami, FL, USA), […] of insulin, 20 ng/mL of epidermal growth factor, 500 ng/mL hydrocortisone, and antibiotic (100 U/mL penicillin and […] streptomycin). […]

[2] = test system: MCF-10A cells; assay: Antiproliferative activity, MTT assay, MCF-10A; assay type: cell-based; settings: Homo sapiens, non-tumorigenic cells, mean ± SD
Description: as §1
(§2) MDA-MB-231 adenocarcinoma cell line was procured from ATCC (CRM-HTB-26TM). […] Cell culture was performed in the appropriate medium for each cell line (MCF-7, MDA-MB-231, MCF-10A, and NIH/3T3). MCF-7, MDA-MB-231, and NIH/3T3 cells were grown in Dulbecco’s modified Eagle Medium (DMEM) high-glucose with phenol red, supplemented with fetal bovine serum inactivated by heat (10%) (BioWest, Miami, FL, USA) and antibiotic (100 U/mL penicillin and […] streptomycin). MCF-10A were grown in DMEM-F12 medium, supplemented with 5% of horse serum inactivated by heat (Biowest, Miami, FL, USA), […] of insulin, 20 ng/mL of epidermal growth factor, 500 ng/mL hydrocortisone, and antibiotic (100 U/mL penicillin and […] streptomycin). All cell lines were incubated at 37 °C with 5% CO2 after reaching 80% confluence at 24 h. The cells were seeded in a 96-well cell culture plate (10,000 cells/well). After incubation, the cells were treated with compounds (1a–1d and 2a–2d) at varying concentrations (100, 50, 25, 12.5, and 6.25 µM) and then incubated for 42 h under standard conditions. […]

[3] = test system: MCF-7 cells; assay: Antiproliferative activity, MTT assay, MCF-7; assay type: cell-based, human; settings: for IC50: Homo sapiens, MCF7, MTT, mean ± SD of at least three independent experiments
Description: as §1, §2

[4] = test system: MDA-MB-231 cells; assay: Antiproliferative activity, MTT assay, MDA-MB-231; assay type: cell-based; settings: Homo sapiens, mean ± SD of at least three independent experiments
Description: as §1, §2

[5] = test system: MDA-MB-231 cells; assay: Wound closure (cell migration) assay; assay type: cell-based, human; settings: MDA-MB-231, treated at IC50 concentration; for wound closure rate: 0-48 h; for maximum wound closure: 48 h
Description: The triple-negative cancer, produced by MDA-MB-231 cells, is highly invasive and metastatic, capable of migrating to other tissues. […] The wound closure begins at 12 h, at this time, there is a significant difference between cells treated with compound 1c and MTX compared with non-treated cells. Nevertheless, the maximum effect is observed at 48 h, when wound closure is complete for non-treated cells. For cells treated with compound 1c, the maximum wound closure was 51%, while for the reference drug, MTX, it was 38% at 48 h. In both cases, there is a significant difference from the control, with wound closure rates of −2.0 ± 0.1 (R = 0.98), −1.0 ± 0.1 (R = 0.94), and −0.7 ± 0.1 (0.88) in %area/h for control, 1c, and MTX, respectively. The results confirmed the capability of 1c to prevent cell migration in MDA-MB-231 cells, similar to the reference drug MTX, and other reported BTs.
The wound closure assay was performed according to the reported methods on MDA-MB-231 cell line. For this purpose, cells (2 × 10^5) were seeded in complete medium on a 24-well plate and incubated for 24 h under standard conditions. After that, the wound gap was made by scratching the cell monolayer with a 200 µL pipette tip. Cell debris and exhausted medium were discarded, washed with PBS, and the medium was replaced. […] The wound closure was monitored by microscopy at 12, 24, and 48 h, and the wound area was measured in duplicate in three independent experiments using ImageJ (1.54k) software. The results were expressed as a percentage of the control (cell culture medium with 0.1% DMSO).

[6] = test system: MCF-7 cells; assay: Annexin V apoptosis induction assay, MCF-7; assay type: cell-based, human; settings: MCF-7, IC50 concentration, 48 h
Description: (§3) Apoptosis induction is one of the most common mechanisms of cell death exerted by antineoplastic drugs. This is because cancer cells can evade this cell death mechanism, allowing malignant cells to survive and leading to tumor progression. Apoptosis involves several physiological cell modifications, including the destabilization of the phospholipid bilayer and the subsequent exposure of phosphatidylserine. This phospholipid can be easily recognized by annexin V, a protein that is useful for identifying apoptotic cells. Therefore, apoptosis was determined for both breast cancer human cell lines, MCF-7 and MDA-MB-231, and the NIH/3T3 non-tumoral cell line. […] Regarding non-malignant fibroblast cells (NIH/3T3), a slight decrease in live cells was observed only for compound 1c (60%) compared to the control (81%) and MTX (72%), as shown in Figure 12.
(§4) The annexin V cytometry assay was performed on malignant cells (MCF-7 and MDA-MB-231) and non-malignant cells (NIH/3T3) using the Annexin V-FITC Apoptosis Detection kit (Santa Cruz Biotechnology). The corresponding cells were seeded in a 12-well plate as previously described and incubated under standard conditions (1.5 × 10^5 cells/well). After 24 h of incubation, the exhausted medium was replaced, and cells were treated at the IC50 concentration for compound 1c and MTX. […]

[7] = test system: NIH/3T3 cells; assay: Annexin V apoptosis induction assay, NIH/3T3; assay type: cell-based, mouse; settings: NIH/3T3, IC50 concentration, 48 h; control 81%
Description: as §3, §4

[8] = test system: MDA-MB-231 cells; assay: Annexin V apoptosis induction assay, MDA-MB-231; assay type: cell-based, human; settings: MDA-MB-231, IC50 concentration, 48 h
Description: as §3
The annexin V cytometry assay was performed on malignant cells (MCF-7 and MDA-MB-231) and non-malignant cells (NIH/3T3) using the Annexin V-FITC Apoptosis Detection kit (Santa Cruz Biotechnology). The corresponding cells were seeded in a 12-well plate as previously described and incubated under standard conditions (1.5 × 10^5 cells/well). After 24 h of incubation, the exhausted medium was replaced, and cells were treated at the IC50 concentration for compound 1c and MTX. After 48 h, the exhausted medium was recovered for cytometric measurements, and the cells were trypsinized, inactivated with DMEM, centrifuged, washed with PBS and centrifuged (1500 rpm, 5 min, 4 °C). The PBS was removed, and the remainder was drained on gauze. The formed pellet was shaken with 300 µL of the buffer from the flow cytometry kit (Miltenyi Biotec, Bergisch Gladbach, Germany), which had previously been prepared at a concentration of 1%. The sample was left to incubate for 15 min at room temperature, protected from light, and then 100 µL aliquots were taken to the flow cytometry equipment (BD FACSAria Fusion, Franklin Lakes, NJ, USA). Five microliters of annexin and two microliters of propidium iodide (100 µg/mL) were added to the reaction with the cells. […]

Row | SMILES | IC50 [1] [µM] | IC50 [2] [µM] | IC50 [3] [µM] | IC50 [4] [µM] | wound closure rate [5] [%area/h] | maximum wound closure [5] [%] | late apoptosis cell population [6] | live cells [7] [%] | selectivity toward malignant cells, fold more active in MCF-7 than in MCF-10A ([3]; MCF-7 vs MCF-10A) [fold] | fold more active on MCF-7 cells than on MDA-MB-231 cells ([3]; MCF-7 vs MDA-MB-231) [fold] | effect on cell viability [8] | percentage of late apoptotic cells ([8]; non-treated cells 14%) [%]
1 | O=C(Nc1nc2ccccc2s1)C(=S)NCc1ccccc1 [1a, N-(benzo[d]thiazol-2-yl)-2-(benzylamino)-2-thioxoacetamide] | 29 ± 6 | 44 ± 6 | 95 ± 13 | 72 ± 7 |  |  |  |  |  |  |  | 
2 | COc1ccccc1CNC(=S)C(=O)Nc1nc2ccccc2s1 [1b, N-(benzo[d]thiazol-2-yl)-2-((2-methoxybenzyl)amino)-2-thioxoacetamide] |  |  | > 100 | > 100 |  |  |  |  |  |  |  | 
3 | COc1ccc(CNC(=S)C(=O)Nc2nc3ccccc3s2)cc1 [1c, N-(benzo[d]thiazol-2-yl)-2-((4-methoxybenzyl)amino)-2-thioxoacetamide] | 41 ± 5 | 55 ± 6 | 32 ± 5 | 52 ± 8 | −1.0 ± 0.1 | 51 | significant increase | 60 | 1.7 | 1.6 | did not show a significant effect | 
4 | O=C(Nc1nc2ccccc2s1)C(=S)NCCc1ccccc1 [1d, N-(benzo[d]thiazol-2-yl)-2-(phenethylamino)-2-thioxoacetamide] |  |  | > 100 | > 100 |  |  |  |  |  |  |  | 
5 | Cc1ccc2nc(NC(=O)C(=S)NCc3ccccc3)sc2c1 [2a, 2-(benzylamino)-N-(6-methylbenzo[d]thiazol-2-yl)-2-thioxoacetamide] | 22 ± 4 | 43 ± 6 | 72 ± 9 | > 100 |  |  |  |  |  |  |  | 
6 | COc1ccccc1CNC(=S)C(=O)Nc1nc2ccc(C)cc2s1 [2b, 2-((2-methoxybenzyl)amino)-N-(6-methylbenzo[d]thiazol-2-yl)-2-thioxoacetamide] |  | 42 ± 5 | > 100 | > 100 |  |  |  |  |  |  |  | 
7 | COc1ccc(CNC(=S)C(=O)Nc2nc3ccc(C)cc3s2)cc1 [2c, 2-((4-methoxybenzyl)amino)-N-(6-methylbenzo[d]thiazol-2-yl)-2-thioxoacetamide] | 31 ± 6 | 74 ± 12 | 88 ± 6 | > 100 |  |  |  |  |  |  |  | 
8 | Cc1ccc2nc(NC(=O)C(=S)NCCc3ccccc3)sc2c1 [2d, N-(6-methylbenzo[d]thiazol-2-yl)-2-(phenethylamino)-2-thioxoacetamide] |  |  | > 100 | > 100 |  |  |  |  |  |  |  | 
9 | CN(Cc1cnc2nc(N)nc(N)c2n1)c1ccc(C(=O)N[C@@H](CCC(=O)O)C(=O)O)cc1 [MTX, methotrexate, reference compound] | 26 ± 5 | 14 ± 3 | 0.8 ± 0.1 | 28 ± 3 | −0.7 ± 0.1 | 38 | significant increase | 72 |  |  | did not show a significant effect | 9
